From PubChem BioAssay AID1250 (SRMLSC, 2008) come the findings set out here.

This experiment can be described thus: antiviral protection against BTV-induced cell death – arbovirus, BSR cells, confirmation (AID 1250). To be noted: BSR cells, Bluetongue virus CPE, ATP luminescence, 72 h; at 20 µM (top of the series).

Structures are written as SMILES. The source made the active and inactive calls.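 How the source made its calls: active means inhibition of at least 30% at one or more tested concentrations; inactive means inhibition below 30% at every dose.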

`COc1cc2c(C(=O)O)c(C)n(CC(C)C)c2c2ccccc12`: the CPE inhibition is 28.1% (inactive).
For `OCCNc1nc(Nc2ccccc2)nc2ccccc12`, the CPE inhibition was 15.3% (inactive).
Turning to `O=C(O)CCCC(=O)Nc1nc2n(n1)C(c1ccc(F)cc1)CC(c1ccc(Cl)cc1)N2` (stereo unspecified), the CPE inhibition was 2.43% (inactive).
For the compound `Cc1cccc(/C(N)=N/OC(=O)COc2ccc(Cl)cc2)c1`, the CPE inhibition was 5.92% (inactive).
On to `O=C(O)c1csc(N/N=C/c2ccc(Br)cc2)n1`, for which the CPE inhibition was 8.09% (inactive).
Next, `CCSc1nc2c(sc3nc(C)cc(C)c32)c(=O)[nH]1`: 18% (inactive).
Next, `CCOc1ccc(-n2c(=S)sc3c(=O)[nH]c(SCC(=O)C(C)(C)C)nc32)cc1`: 7.23% (inactive).
On to `O=c1c(-c2ccccc2)c[nH]n1-c1cccc([N+](=O)[O-])c1`, for which the CPE inhibition was 14.9% (inactive).
Take `CC(C)CSC1=NSC2=NC(=O)/C(=C\c3cccs3)C(=N)N12`: the CPE inhibition is 28.6% (inactive).
Next, `CCc1ccc(N2CCN(C(=O)c3ccc(OC)c(OC)c3)CC2)cc1`: 7.4% (inactive).
With `Fc1ccc2nc(Nc3nc4c(F)cccc4s3)sc2c1`, the CPE inhibition was 20.9% (inactive).
In the case of `CCCCCCCCCCCC(=O)NC(C(=O)O)C(O)c1ccccc1` (stereo unspecified), the CPE inhibition was 11.5% (inactive).
Consider `O=C(Nc1scc(-c2ccc(F)cc2)c1C(=O)O)c1ccco1`, for which the CPE inhibition is 10% (inactive).
On to `CCOC(=O)C1CCCN(Cc2ccccc2Cl)C1` (stereo unspecified), for which the CPE inhibition is 6.31% (inactive).
For `COC(=O)c1c(-c2ccccc2)csc1N1C(=O)Nc2ccccc2N1O` the value was 10.9% (inactive); for `N=C1/C(=C/c2cccs2)C(=O)N=C2SN=C(SCc3ccccc3)N12`, 29.3% (inactive); for `O=C(Nc1nc(-c2ccc3c(c2)OCO3)cs1)C1COc2ccccc2O1` (stereo unspecified), 22.7% (inactive).
For `CCN=c1scc(C)n1/N=C/c1cc(Br)c(O)c(Br)c1` the value was -2.38% (inactive); for `CC1=C(C(=O)OC2CCCCCCC2)C(c2cccc(O)c2)NC(=O)N1` (stereo unspecified), 7% (inactive); for `Cc1ccc2c(c1)c(Sc1ccccc1)c(CC(=O)O)n2C`, -0.49% (inactive).
In the case of `CC(=O)NCC1=C(NC(C)=O)C2CC1C(C)(C)C2C` (stereo unspecified), the CPE inhibition was 2.41% (inactive).
As for `CC1CC(C)(C)CC2(C1)NC(=O)N(CC(=O)NCCc1c[nH]c3ccccc13)C2=O` (stereo unspecified), the CPE inhibition is 23.6% (inactive).
For `O=C(CSCc1ccccc1)Nc1cccc(C(=O)Nc2ccccc2C(=O)O)c1` the value was 9.16% (inactive); for `COCC(C)n1c(SCc2nc3ccccc3c(=O)[nH]2)nc2ccccc2c1=O` (stereo unspecified), 29.9% (inactive).
In the case of `c1ccc(CSc2ccc(-c3cccnc3)nn2)nc1`, the CPE inhibition was 0.68% (inactive).
For `Cc1ccc(NC(=O)c2cncc(Br)c2)c(O)c1` the value was 13.8% (inactive).
`C=CCn1c(SCC(=O)Nc2nc3ccccc3s2)nnc1-c1ccccc1O`: the CPE inhibition was 21.1% (inactive).
With `O=c1[nH]c(=O)n(C(c2ccccc2)c2ccccc2)cc1Br`, the CPE inhibition was 18.7% (inactive).
In the case of `CN1CCN(c2ccc(/C=C3\C(=O)NC(=S)N(c4cccc(Br)c4)C3=O)o2)CC1`, the CPE inhibition is 14.7% (inactive).
As to `N#Cc1c(NC(=O)CSc2nnc(-c3ccccc3)o2)sc2c1CCCC2`, the CPE inhibition is -0.12% (inactive).
For `O=C(O)c1ccc2[nH]c3c(c2c1)CSCC3` the value was 2.13% (inactive); for `O=[N+]([O-])c1ccc(NCCNCCOc2nonc2-c2ccccc2)c([N+](=O)[O-])c1`, 6.24% (inactive); for `C=CCOc1ccc(Br)cc1/C=C1/SC(=Nc2ccc(C(=O)O)cc2)NC1=O`, 10.2% (inactive).
As for `Cc1ccc(O)c(-c2cc(C(=O)Nc3ccc(S(=O)(=O)Nc4nc(C)cc(C)n4)cc3)[nH]n2)c1`, the CPE inhibition is 21.8% (inactive).
In the case of `Oc1ccccc1CN1CCCN(Cc2ccccc2O)C1`, the CPE inhibition was 2.17% (inactive).
As for `CC(=O)c1ccc(N2CCN(C(=O)c3cc(-c4cccnc4)nc4ccc(Br)cc34)CC2)cc1`, the CPE inhibition was 0.41% (inactive).
For `COc1ccc2c(C)cc(Sc3nnnn3-c3ccccc3)nc2c1` the value was 20.9% (inactive); for `N#Cc1c(-c2ccccc2)nc(SCC(=O)N(c2ccccc2)c2ccccc2)[nH]c1=O`, 12.2% (inactive).
For `O=[N+]([O-])c1cccc(/C=N\N=C2c3ccccc3-c3ccccc32)c1O` the value was 22.2% (inactive); for `CCSc1nnc(NC(=O)CSc2nnc(Cc3cccn3C)n2-c2ccc(F)cc2)s1`, 13.9% (inactive).
Take `Cc1ccc(C(=O)O)cc1-c1ccc(/C=C2/NC(=O)N(c3ccccc3)C2=O)o1`: the CPE inhibition is 19.9% (inactive).
Take `CC(C)c1ccc(C2=C(O)c3ccccc3C(=O)C2=O)cc1`: the CPE inhibition is 14.3% (inactive).
`O=C(O)/C(=C\c1ccc(-c2ccc(F)cc2)o1)c1ccccc1`: the CPE inhibition is 24.5% (inactive).
Regarding `COc1ccc(NC(=O)C(=O)N/N=C/c2cc(C)n(-c3cccc(Cl)c3Cl)c2C)c(OC)c1`, the CPE inhibition is 20.7% (inactive).
As for `Fc1ccccc1N1CCN(Cc2nc(-c3ccc(Cl)cc3Cl)no2)CC1`, the CPE inhibition is 19.9% (inactive).
`O=C(CCl)N=c1sccn1Cc1cccc2ccccc12`: the CPE inhibition was 7.67% (inactive).
In the case of `O=C(Nc1nc2ccccc2s1)c1ccc(N2CCCCC2)c([N+](=O)[O-])c1`, the CPE inhibition was 22.1% (inactive).
For `C=CCn1c(SC(C)C(N)=O)nc2sc(CC)cc2c1=O` (stereo unspecified) the value was 18% (inactive); for `COc1cccc(C2=CC(c3ccc(C)cc3)n3ncnc3N2)c1` (stereo unspecified), 22.6% (inactive).
Next, `O=c1oc(-c2ccccc2NS(=O)(=O)c2ccc3ccccc3c2)nc2ccccc12`: 10.9% (inactive).
For the compound `COC(=O)c1sccc1NC(=O)CSc1ccccc1NS(=O)(=O)c1ccc(Br)cc1`, the CPE inhibition is 18.5% (inactive).
With `CCc1ccc(C2=CC(c3cc(Br)ccc3F)n3ncnc3N2)cc1` (stereo unspecified), the CPE inhibition was -5.9% (inactive).
As for `CNc1ccccc1C(C)(C)c1cc(-c2cccc(OC)c2)no1`, the CPE inhibition is 7.83% (inactive).
Turning to `OC(c1ccccc1)C1CN(Cc2ccccc2)CCC1(O)c1ccccc1` (stereo unspecified), the CPE inhibition is 20.9% (inactive).
Next, `CC1Cc2ccccc2N1S(=O)(=O)c1cccc(C(=O)N2CCN(c3ncccn3)CC2)c1` (stereo unspecified): 19.4% (inactive); `CCc1ccc(S(=O)(=O)c2ccc(-n3nc(C)cc3N)cc2)cc1`: 6.14% (inactive).
Next, `CC1Cc2ccccc2N1C(=O)CSc1ccccc1` (stereo unspecified): -1.84% (inactive); `CC(C)C(=O)Nc1nnc(SCC(=O)N2c3ccccc3CC2C)s1` (stereo unspecified): 11.5% (inactive).
Next, `CCOC(=O)c1csc(NC(=O)CC2CCCC2)n1`: 6.07% (inactive); `COc1ccc(CCNCC(O)c2ccccc2)cc1` (stereo unspecified): 13.7% (inactive); `COc1ccccc1NC(=O)CN1CCC(n2c(C)nc3cc(F)ccc32)CC1`: 23.7% (inactive).
